# Data: PMC2703642, “PpoR is a conserved unpaired LuxR solo of Pseudomonas putida which binds N-acyl homoserine lactones” (BMC Microbiology, 2009)
# Target: T1, PpoR (Pseudomonas putida, UniProt Q88E21)
# T1 construct: gene PP_4647; full-length, 235 aa [sic] (705 bp ORF); 721-bp fragment with entire ppoR cloned SphI-HindIII in pQE30 (pQEPpoR); expressed in E. coli M15(pRep4); not purified
# Assay: AHL retention in washed E. coli cells expressing PpoR, ethyl acetate extraction, TLC with A. tumefaciens NTL4 (pZLR4) overlay
# Assay type: cell-based
# Conditions: 1 uM AHL in LB, 30 C, IPTG induction 3.5 h; pQE30 vector-only control
# T1 sequence (Q88E21 entry or part of it): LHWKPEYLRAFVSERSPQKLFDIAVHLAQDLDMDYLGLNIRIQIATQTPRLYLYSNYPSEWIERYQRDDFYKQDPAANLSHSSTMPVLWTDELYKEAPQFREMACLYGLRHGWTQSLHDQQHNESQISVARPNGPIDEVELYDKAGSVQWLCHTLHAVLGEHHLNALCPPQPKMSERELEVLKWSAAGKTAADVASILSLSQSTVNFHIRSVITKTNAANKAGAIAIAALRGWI
row,Compound,"AHL retention in washed E. coli cells expressing PpoR, ethyl acetate extraction,"
1,CCCC(=O)CC(=O)N[C@H]1CCOC1=O [3-oxo-C6-HSL],Purification of AHLs from E. coli over-expressing PpoR resulted in detection of 3-oxo-C6-HSL
2,CCCCCC(=O)CC(=O)N[C@H]1CCOC1=O [3-oxo-C8-HSL],"PpoR also exhibited probable binding to 3-oxo-C8-HSL and 3-oxo-C10-HSL, but to a lower extent"
3,CCCCCCCC(=O)CC(=O)N[C@H]1CCOC1=O [3-oxo-C10-HSL],"PpoR also exhibited probable binding to 3-oxo-C8-HSL and 3-oxo-C10-HSL, but to a lower extent"
